Reference: the supplement of paper PMC10307832

Key:
Test in all cases: relative viability (nuclei count vs DMSO), 5 days (fraction); higher = more cells survive
[1] = compound: CCN1C(=O)C2=CC(=C(N=C2N(C1=O)C3CC3)N)C(=O)N
How it was run: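 Lung cancer cell lines in 1536-well plates were exposed by pinning to five library-drug doses (not always all listed) √10 apart, following an overnight hold at 37 °C. MetaXpress counted Hoechst-stained nuclei from 4× images taken after 5 days without medium change. Viability is the median ratio of treated-well to vehicle-well nuclei across plates. Plates required control CV below 25% and at least one doubling.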

[2] = compound: CCN1C(=O)C2=CC(=C(N=C2N(C1=O)C3CC3)N)C(=O)N + C[C@@H](Oc1cc(-c2cnn(C3CCNCC3)c2)cnc1N)c1c(Cl)ccc(F)c1Cl [Crizotinib] (partner 1 µM)
How it was run: (§1)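 Lung cancer cell lines in 1536-well plates got either a single drug or a fixed anchor-drug dose together with five library-drug doses (not always all listed) in √10 steps, by pin tool, on the day after seeding. Nuclei were counted after 5 days, and relative viability is the treated-to-vehicle ratio of nuclei counts. Values are medians of duplicate plates.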

[3] = compound: CCN1C(=O)C2=CC(=C(N=C2N(C1=O)C3CC3)N)C(=O)N + O=C(CCCCCCC(=O)Nc1ccccc1)NO [Vorinostat] (partner 1 µM)
How it was run: as §1

[4] = compound: CCN1C(=O)C2=CC(=C(N=C2N(C1=O)C3CC3)N)C(=O)N + C[C@]1(O)C[C@@H](c2nc(-c3ccc4ccc(-c5ccccc5)nc4c3)c3c(N)nccn32)C1 [Linsitinib] (partner 1 µM)
How it was run: as §1

[5] = compound: CCN1C(=O)C2=CC(=C(N=C2N(C1=O)C3CC3)N)C(=O)N + CCNC(=O)c1noc(-c2cc(C(C)C)c(O)cc2O)c1-c1ccc(CN2CCOCC2)cc1 [Luminespib] (partner 0.01 µM)
How it was run: as §1

Row | Cell Line | relative viability ([1]; 0.253 µM) | relative viability ([1]; 0.8 µM) | relative viability ([1]; 2.53 µM) | relative viability ([1]; 8 µM) | relative viability ([2]; first compound 0.253 µM) | relative viability ([2]; first compound 0.8 µM) | relative viability ([2]; first compound 2.53 µM) | relative viability ([2]; first compound 8 µM) | relative viability ([3]; first compound 0.253 µM) | relative viability ([3]; first compound 0.8 µM) | relative viability ([3]; first compound 2.53 µM) | relative viability ([3]; first compound 8 µM) | relative viability ([4]; first compound 0.253 µM) | relative viability ([4]; first compound 0.8 µM) | relative viability ([4]; first compound 2.53 µM) | relative viability ([4]; first compound 8 µM) | relative viability ([5]; first compound 0.253 µM) | relative viability ([5]; first compound 0.8 µM) | relative viability ([5]; first compound 2.53 µM) | relative viability ([5]; first compound 8 µM)
1 | 201T | 0.993 | 0.948 | 1.04 | 0.964 | 1.08 | 0.97 | 0.98 | 1.03 | 0.92 | 0.982 | 0.945 | 0.973 | 1 | 0.991 | 0.952 | 1.01 | 1.06 | 1.04 | 1.02 | 1.08
2 | A549 | 0.985 | 1.02 | 0.962 | 0.956 | 0.712 | 0.76 | 0.732 | 0.886 |  |  |  |  |  | 0.605 | 0.505 | 0.516 |  |  |  | 
3 | A-427 | 1.02 | 0.991 | 1.03 | 1.03 | 0.986 | 1.08 | 0.774 | 1.06 | 0.923 | 0.926 | 0.842 | 0.852 | 1.24 | 1.11 | 1.04 | 1.1 | 1.13 | 1.26 | 1.24 | 1.13
4 | ABC-1 | 0.986 | 0.686 | 1 | 0.841 | 1.21 | 1.04 | 1.18 | 1.32 | 1.11 |  | 1.81 | 1.11 | 0.825 | 0.989 | 0.72 | 0.876 | 0.869 | 0.4 | 0.639 | 0.518
5 | BEN | 0.952 | 0.885 | 1.11 | 1.02 | 0.713 | 0.865 | 0.903 | 1.07 | 0.608 | 0.641 | 0.63 | 0.625 | 0.961 | 0.92 | 0.919 | 0.954 | 0.469 | 0.427 | 0.377 | 0.351
6 | CAL-12T | 1 | 0.964 | 1.02 | 1.02 | 0.549 | 0.595 | 0.702 | 0.783 | 0.771 | 0.642 | 0.659 | 0.803 | 0.792 | 0.773 | 0.721 | 0.776 | 0.294 | 0.792 | 0.193 | 0.436
7 | COR-L23 | 1.01 | 0.962 | 1.04 | 1.12 | 0.594 | 0.635 | 0.567 | 0.695 | 0.413 | 0.393 | 0.446 | 0.343 | 0.89 | 0.9 | 0.776 | 1.03 | 0.697 | 0.653 | 0.657 | 0.765
8 | COR-L 105 | 0.979 | 0.841 | 0.875 | 0.963 | 0.915 | 0.726 | 0.732 | 0.995 | 0.902 | 0.779 | 0.688 | 0.819 | 1.12 | 1.04 | 0.945 | 0.939 | 0.807 | 0.737 | 0.623 | 0.641
